Results published in patent publication US6943034B1, “Combinatorial strategies for polymer synthesis” (Affymetrix, Inc., priority 1991, dated 2005).
Where no end group is shown, it is not given here. [ ]: non-standard residue; d: D form.

Experiments:
[1] = tested on: complementary base sequence 5′GCGTCGGC-F (SEQ ID NO:5); assay: Channel Matrix Hybridization Assay; assay type: binding; conditions: 10 nM target, 15° C., one hour; scanned in 6× SSPE buffer; result in words
Text: A center region of a two by three inch slide was derivatized with bis(2-Hydroxyethyl) aminopropyltriethoxy silane. Six nucleosides were then coupled to the entire reaction region using a synthesis process consisting of deprotection, coupling, and oxidation steps for each monomer applied. These first six nucleosides were coupled in a reaction region defined by a 0.84 inch diameter circular well in an aluminum template clamped to the two by three inch slide.
The seventh and eighth monomers were applied to the substrate by flowing monomer solutions through 100 micron channels in an etched silicon channel block (employed in Example C above). The seventh base was coupled along the long axis (vertical) of the two-inch by three-inch slide, and the eighth base perpendicular to the seventh, along the short axis (horizontal) of the slide. This defined an active matrix region of 1.28 by 1.28 cm having a density of 2,500 reaction regions per square centimeter.
The complete octamer synthesized at the channel intersections formed by the seventh and eighth coupling steps had the following sequence: […]
After completion of the synthesis process, cleavage of exocyclic amines was performed by immersion of the reaction region in concentrated ammonium hydroxide. […] Finally, the reaction region was then scanned using a laser fluorescence detection system while immersed in the buffer.

[2] = tested on: Herz antibody 3E7; assay: staining of substrate-bound peptide array with FITC-labelled antibodies, fluorescence intensity; assay type: binding; conditions: for overall intensity ratios YGGFL:YpGFL:pGGFL:ppGFL: fluorescence intensity of all sites on the slide after staining with FITC-labelled Herz antibody 3E7, ratio relative to ppGFL = 1.0; for fluorescence intensity of peptide sites (FIG. 19): slide stained with FITC-labelled Herz antibody 3E7, result in words
Text: The system was used to synthesize four distinct peptides: YGGFL (SEQ ID NO:1), YpGFL (SEQ ID NO:2), pGGFL (SEQ ID NO:3), and ppGFL (SEQ ID NO:6) (the abbreviations are included in Stryer, Biochemistry, Third Ed. (1988), previously incorporated herein by reference; lower case letters indicate D-optical isomers and upper case letters indicate L-optical isomers). An entire glass substrate was derivatized with TBOC-protected aminopropyltriethoxysilane, deprotected with TFA, coated with FMOC-protected caproic acid (a linker), deprotected with piperidine, and coated with FMOC-protected Glycine-Phenylalanine-Leucine (GFL).
This FMOC-GFL-coated slide was sealed to the channel block, and all 10 grooves were deprotected with piperdine in DMF. After washing the grooves, FMOC Glycine (G) was injected in the odd grooves, and FMOC d-Proline (p) was injected in the even grooves. After a two-hour coupling time, using standard coupling chemistry, all grooves were washed with DMF. The grooves were vacuum dried, the block removed and rotated 90 degrees. After resealing, all grooves were deprotected with piperdine in DMF and washed. FMOC Tyrosine (Y) was injected in the odd grooves, and FMOC p in the even grooves. After coupling the grooves were washed and vacuum dried. Accordingly, 25 regions of each of the compounds YGGFL (SEQ ID NO:1), YpGFL (SEQ ID NO:2), pGGFL (SEQ ID NO:3), and ppGFL (SEQ ID NO:6) were synthesized on the substrate. The substrate was removed and stained with FITC-labelled antibodies (Herz antibody 3E7).

| Substance | brightness (fluorescence) indicating hybridization with fluoresceinated target chain (FIG. 21) [1] | overall intensity ratios YGGFL:YpGFL:pGGFL:ppGFL [2] | fluorescence intensity of peptide sites (FIG. 19) [2] |
| --- | --- | --- | --- |
| Substrate—(3′)CGCAGCCG(5′) [full octamer] | brightest regions |  |  |
| YGGFL |  | 1.7 | most intense |
| YpGFL (Y[dP]GFL; also: substrate-bound) |  | 1.5 |  |
| pGGFL ([dP]GGFL; also: substrate-bound) |  | 1.1 | near background levels |
| ppGFL ([dP][dP]GFL; also: substrate-bound) |  | 1.0 | near background levels |
